From patent publication US10479793B2, “Imidazopyridazine compounds useful as modulators of IL-12, IL-23 and/or IFN alpha responses” (BRISTOL-MYERS SQUIBB COMPANY, priority 2015, dated 2019)
pEC50, pIC50: −log10 of the molar value. Read-outs that look alike come from different tables or passages of the source.

What was measured:
[1] = molecular target: T1, recombinantly expressed His-tagged protein corresponding to amino acids 575-869 of human Tyk2 (Homo sapiens, UniProt P29597); test: Probe displacement assay (scintillation proximity, tritiated probe); format: binding; details: His-tagged Tyk2 (575-869) 2.5 nM, 40 nM radiolabeled probe, 30 minutes at room temperature
T1 construct: made in house
Description: The preparation of radiolabeled probe, (R)—N-(1-(3-(8-methyl-5-(methylamino)-8H-imidazo[4,5-d]thiazolo[5,4-b]pyridin-2-yl)phenyl)ethyl)-2-([^3H]methylsulfonyl)benzamide, was performed as described below: […]

[2] = tested on: IL-23 stimulated Kit225 T cells with a stably-integrated STAT-dependent luciferase reporter; test: Kit225 T cell assay, IL-23 stimulated STAT-dependent luciferase reporter; format: cell-based, human; details: for pIC50: luciferase, read-out: IL-23 Kit225 Reporter, (IC50); for IC50: KIT225, read-out: IL-23 Kit225 Reporter, (IC50, uM)
Description: (§1) Kit225 T cells with a stably-integrated STAT-dependent luciferase reporter were plated in RPMI (GIBCO) containing 10% heat-inactivated FBS (GIBCO) and 100 U/mL PenStrep (GIBCO). The cells were then stimulated with either 20 ng/mL human recombinant IL-23 or 200 U/mL human recombinant IFNα (PBL InterferonSource) for 5-6 hours. Luciferase expression was measured using the STEADY-GLO Luciferase Assay System (PROMEGA) according to the manufacturer's instructions.

[3] = tested on: IFNα stimulated Kit225 T cells with a stably-integrated STAT-dependent luciferase reporter; test: Kit225 T cell assay, IFNα stimulated STAT-dependent luciferase reporter; format: cell-based, human; details: for pIC50: 5-6 hours, luciferase, read-out: IFNa Kit225 Reporter, (IC50); for IC50: KIT225, read-out: IFNa Kit225 Reporter, (IC50, uM)
Description: as §1

[4] = Homo sapiens, KIT225, 20 ng/mL human recombinant IL-23, 5-6 hours
[5] = Homo sapiens, KIT225, 200 U/mL human recombinant IFNα
[6] = KIT225, 20 ng/mL human recombinant IL-23, 5-6 hours
[7] = KIT225, 200 U/mL human recombinant IFNα

T1 sequence (P29597 with tags, fused parts or gaps): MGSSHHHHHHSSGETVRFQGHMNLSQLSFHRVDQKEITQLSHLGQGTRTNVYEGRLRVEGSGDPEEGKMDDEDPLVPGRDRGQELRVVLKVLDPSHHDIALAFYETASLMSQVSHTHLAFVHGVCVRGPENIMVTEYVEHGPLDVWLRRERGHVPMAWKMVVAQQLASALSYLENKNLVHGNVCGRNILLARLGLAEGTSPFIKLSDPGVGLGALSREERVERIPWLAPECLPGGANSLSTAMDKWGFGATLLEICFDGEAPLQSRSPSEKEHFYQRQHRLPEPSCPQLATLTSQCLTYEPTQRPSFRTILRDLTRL

Compound | pEC50 [1] | pIC50 [2, 4] | pIC50 [3, 5] | pIC50 [2, 6] | pIC50 [3, 7] | IC50 ([2]; Homo sapiens) | IC50 ([3]; Homo sapiens)
CNc1cc(Nc2cc(F)cc(F)c2OC)nn2c(C(=O)NC3CC3)cnc12 [Example 79] | 8.16 | 7.15 | 7.30 |  |  |  | 
CNc1cc(Nc2cccc(N3CCC(O)C3=O)n2)nn2c(C(=O)NC3CC3)cnc12 (stereo not drawn) [Example 90] | 8.41 |  |  | 6.15 | 6.85 |  | 
Cc1cc(F)cc(Nc2nc(NC3CC3)c3ncc(C(N)=O)n3n2)c1 [Example 71] | 6.85 |  |  | 5.53 | 4.90 |  | 
CNc1cc(Nc2cncc(OC)c2)nn2c(C(=O)NC3CC3)cnc12 [Example 93] | 8.00 | 5.96 | 6.39 |  |  |  | 
CNc1cc(Nc2cc(F)cc(F)c2OC)nn2c(C(=O)NCC(C)(C)C)cnc12 [Example 16] | 8.15 |  |  | 6.62 | 7.05 |  | 
CNc1cc(Nc2cccnc2-n2cccn2)nn2c(C(=O)NC3CC3)cnc12 [Example 92] | 7.52 | 6.40 | 6.68 |  |  |  | 
CNc1cc(Nc2cccnc2OC)nn2c(C(=O)NCCF)cnc12 [Example 26] | 8.53 |  |  | 7.05 | 7.22 |  | 
CNc1cc(Nc2cc(F)cc(F)c2)nn2c(C(=O)NCC(C)(C)CO)cnc12 [Example 15] | 7.70 |  |  | 6.25 | 6.40 |  | 
CNc1cc(Nc2cccc(-c3ccc(OC(F)(F)F)cc3)n2)nn2c(C(=O)NC3(C#N)CC3)cnc12 [Example 23] | 7.40 |  |  | 6.38 | 6.18 |  | 
Cc1cc(F)cc(Nc2ccc3ncc(C(=O)NC4CC4)n3n2)c1 [Example 68] | 8.65 | 6.02 | 6.07 |  |  |  | 
CNc1cc(Nc2cc(F)cc(C(F)(F)F)c2)nn2c(C(=O)NC3CCC3)cnc12 [Example 4] | 8.16 | 6.09 | 6.49 |  |  |  | 
CNc1cc(Nc2cccnc2-n2cccn2)nn2c(C(=O)NC(C)CO)cnc12 (stereo not drawn) [Example 29] | 7.40 |  |  | 6.57 | 6.39 |  | 
CNc1cc(Nc2cc(F)cc(F)c2F)nn2c(C(=O)NCC(C)(C)CO)cnc12 [Example 18] | 8.43 |  |  | 7.40 | 8.00 |  | 
CNc1cc(Nc2cccnc2OC)nn2c(C(=O)NC3CCC3)cnc12 [Example 27] | 8.57 | 7.40 | 8.00 |  |  |  | 
CNc1cc(N(C)c2ccccc2)nn2c(C(=O)NC3CC3)cnc12 [Example 76] | 7.30 | 5.45 | 5.55 |  |  |  | 
CNc1cc(Nc2cc(C)cc(F)c2)nn2c(C(=O)NCC(C)(C)O)cnc12 [Example 9] | 8.23 | 6.60 | 6.77 |  |  |  | 
Cc1cc(C)cc(Nc2cc(Nc3cncs3)c3ncc(C(N)=O)n3n2)c1 [Example 61] | 7.30 |  |  | 5.58 | 5.71 |  | 
CNc1cc(Nc2cccc(N3CCOC3=O)n2)nn2c(C(=O)NC3CC3)cnc12 [Example 87] | 8.37 |  |  | 7.05 | 7.22 |  | 
Cc1cc(C)cc(Nc2cc(NCCO)c3ncc(C(N)=O)n3n2)c1 [Example 52] | 7.15 |  |  | 5.15 | 4.89 |  | 
CCCNc1cc(Nc2cc(C)cc(C)c2)nn2c(C(N)=O)cnc12 [Example 54] | 7.52 |  |  | 5.90 | 5.93 |  | 

Compound | pEC50 [1] | pIC50 [2, 4] | pIC50 [3, 5] | pIC50 [2, 6] | pIC50 [3, 7] | IC50 ([2]; Homo sapiens) | IC50 ([3]; Homo sapiens)
CNc1cc(Nc2ccccn2)nn2c(C(=O)N[C@@H]3C[C@@H]3F)cnc12 [Example 22] | 8.26 | 6.60 | 6.74 |  |  |  | 
CCNC(=O)c1ncccc1Nc1cc(NC)c2ncc(C(=O)NC3CC3)n2n1 [Example 103] | 6.80 |  |  |  |  | 0.47 µM | 0.36 µM
Cc1cc(C)cc(Nc2cc(NCC(C)C)c3ncc(C(N)=O)n3n2)c1 [Example 53] | 6.70 |  |  | 5.01 | 4.91 |  | 
CNc1cc(Nc2cccc3c2OCCO3)nn2c(C(=O)NCC(C)(C)O)cnc12 [Example 82] | 8.00 |  |  | 6.74 | 7.05 |  | 
CNc1cc(Nc2cccnc2-n2cccn2)nn2c(C(=O)N[C@@H](C)CO)cnc12 [Example 32] | 7.30 |  |  | 6.27 | 6.51 |  | 
CNc1nc(Nc2ccccc2OC)nn2c(C(N)=O)cnc12 [Example 74] | 8.00 |  |  | 6.52 | 6.70 |  | 
COCCNc1cc(Nc2cc(C)cc(C)c2)nn2c(C(N)=O)cnc12 [Example 56] | 7.15 |  |  | 5.67 | 5.75 |  | 
Cc1cc(C)cc(Nc2cc(NCCN(C)C)c3ncc(C(N)=O)n3n2)c1 [Example 58] | 7.10 |  |  |  |  | 1.55 µM | 2.96 µM
CNc1cc(Nc2c(OC)ccc(F)c2F)nn2c(C(=O)NC3CC3)cnc12 [Example 75] | 8.68 | 7.00 | 7.30 |  |  |  | 
CNc1cc(Nc2cc(F)cc(F)c2F)nn2c(C(=O)NC3CC3)cnc12 [Example 13] | 8.53 | 7.30 | 7.52 |  |  |  | 
Cc1cc(F)cc(Nc2cc(NC3CC3)c3ncc(C(=O)NC4CC4)n3n2)c1 [Example 38] | 7.70 | 6.10 | 6.24 |  |  |  | 
CNc1cc(Nc2cc(F)cc(F)c2OC)nn2c(C(=O)NCC(C)(C)O)cnc12 [Example 81] | 8.14 |  |  | 6.57 | 6.64 |  | 
CNc1cc(Nc2cccc(-c3ccccc3)n2)nn2c(C(=O)NC3CC3)cnc12 [Example 86] | 7.70 | 6.54 | 6.52 |  |  |  | 
CNc1cc(Nc2cccnc2-n2nc(C)cc2C(F)(F)F)nn2c(C(=O)NC3CC3)cnc12 [Example 100] | 6.85 |  |  | 4.90 | 4.90 |  | 
CNc1nc(Nc2cc(C)cc(F)c2)nn2c(C(N)=O)cnc12 [Example 73] | 8.11 |  |  | 6.55 | 6.85 |  | 
N#Cc1cc(Nc2cc(NC3CC3)c3ncc(C(=O)NC4CC4)n3n2)cc(C(F)(F)F)c1 [Example 33] | 6.72 |  |  | 4.90 | 4.90 |  | 
CNc1cc(Nc2cccnc2OC)nn2c(C(=O)NCCO)cnc12 [Example 25] | 8.22 |  |  | 7.30 | 7.05 |  | 
CNc1cc(Nc2ccccc2OC)nn2c(C(=O)NCC(C)(C)O)cnc12 [Example 80] | 8.32 |  |  | 6.82 | 6.92 |  | 
CNc1cc(Nc2cccc(-c3ccc(C(F)(F)F)cc3F)c2)nn2c(C(=O)NC3CC3)cnc12 [Example 116] | 7.18 |  |  | 5.96 | 5.92 |  | 
CNc1cc(Nc2cc(C)cc(F)c2)nn2c(C(=O)N3CCC3)cnc12 [Example 3] | 7.22 |  |  |  |  | 2.82 µM | 1.92 µM
